# In EP0442744A2, “Treatment of viral disease by glycosides” (TSUMURA & CO., priority 1990, dated 1991):
# How the values were obtained:
# in vitro = details: human, fl cells
# Procedure: (§1) When the experiment was started, the medium was removed from the dishes and a suspension (1 ml) containing Herpes simplex virus at the predetermined concentration in the medium was added to the dishes. The dishes were incubated in an incubator under the humidified air containing 5% CO₂ at 36°C for one hour to allow the adsorption of the viruses. Then the medium was removed and a fresh medium containing the test compounds was added. After 24 hours, the number of polykaryotic giant cells in each dish was counted and the minimum concentration showing no polykaryotic giant cells was taken as the antivirally active concentration to the herpes virus. The experiment was repeated without the virus and the minimum concentration at which cells died was taken as the cytotoxic concentration.
# Herpes simplex virus = assay: Herpes virus inhibition experiment in FL cells (polykaryotic giant cell count); format: cell-based; details: for minimal effective concentration: minimum concentration showing no polykaryotic giant cells after 24 hours, FL cells infected with Herpes simplex virus, read-out: Antivial activity
# Procedure: as §1
# [1] = Cytotoxicity in FL cells (experiment repeated without the virus); details: human
# Procedure: as §1
structure (smiles),measurement,setting,value
"C[C@]12CC[C@H](O)C[C@H]1CC[C@@H]1[C@@H]2CC[C@]2(C)[C@@H](c3ccc(=O)oc3)CC[C@]12O [Compound 7, 3,14-dihydroxybufa-20,22-dienolide]",MCC at 24 h,in vitro,0.5 µg/mL
same,Antivial activity,Herpes simplex virus,8 ng/mL
"C[C@@H]1O[C@@H](O[C@H]2CC[C@]3(C=O)[C@H]4CC[C@]5(C)[C@@H](C6=CC(=O)OC6)CC[C@]5(O)[C@@H]4CC[C@]3(O)C2)[C@H](O)[C@H](O)[C@H]1O [Compound 6, 3β-[(6-deoxy-α-L-mannopyranosyl)oxy]-5,14-dihydroxy-19-oxo-5β-card-20(22) enolide]",MCC,[1],0.38 µg/mL
same,minimal effective concentration,Herpes simplex virus,0.025 µg/mL
"C[C@H]1O[C@@H](O[C@H]2[C@@H](O)C[C@H](O[C@H]3[C@@H](O)C[C@H](O[C@H]4CC[C@@]5(C)[C@H](CC[C@@H]6[C@@H]5C[C@@H](O)[C@]5(C)[C@@H](C7=CC(=O)OC7)CC[C@]65O)C4)O[C@@H]3C)O[C@@H]2C)C[C@H](O)[C@@H]1O [Compound 2, 3-[(O-2,6-dideoxy-β-D-ribo-hexopranoxyl-(1→4)-O-2,6-dideoxy-β-D-ribo-hexopyranosyl-(1→4)-2,6-dideoxy-β-D-ribo-hexopyranosyl)-oxy]-12,14-dihydroxycard-(20)22-enolide]",MCC,[1],0.48 µg/mL
same,minimal effective concentration,Herpes simplex virus,0.05 µg/mL
C[C@H]1O[C@@H](O[C@H]2CC[C@]3(C=O)[C@H]4CC[C@]5(C)[C@@H](C6=CC(=O)OC6)CC[C@]5(O)[C@@H]4CC[C@]3(O)C2)C[C@H](O)[C@@H]1O [Compound 5],MCC,[1],0.46 µg/mL
same,minimal effective concentration,Herpes simplex virus,0.03 µg/mL
"C[C@@H]1O[C@@H](O[C@H]2C[C@@H](O)[C@]3(CO)[C@H]4[C@H](O)C[C@]5(C)[C@@H](C6=CC(=O)OC6)CC[C@]5(O)[C@@H]4CC[C@]3(O)C2)[C@H](O)[C@H](O)[C@H]1O [Compound 4, 3-[(6-deoxy-α-L-mannopyranosyl)oxy]-1,5,11α, 14,19-pentahydroxycard-20(22) enolide]",MCC,[1],0.46 µg/mL
same,minimal effective concentration,Herpes simplex virus,0.04 µg/mL
"C[C@H]1O[C@@H](O[C@H]2[C@@H](O)C[C@H](O[C@H]3[C@@H](O)C[C@H](O[C@H]4CC[C@@]5(C)[C@H](CC[C@@H]6[C@@H]5CC[C@]5(C)[C@@H](C7=CC(=O)OC7)CC[C@]65O)C4)O[C@@H]3C)O[C@@H]2C)C[C@H](O)[C@@H]1O [Compound 1, 3-[(O-2,6-dideoxy-β-D-ribo-hexopranoxyl-(1→4)-O-2,6-dideoxy-β-D-ribo-hexopyranosyl-(1→4)-2,6-dideoxy-β-D-ribo-hexopyranosyl)-oxy]-14-hydroxycard-(20)22-enolide]",MCC,[1],0.48 µg/mL
same,minimal effective concentration,Herpes simplex virus,0.025 µg/mL
